PubChem BioAssay AID248 (DTP/NCI, 2004)
Where “and” joins values, the source holds several entries; their conditions need not be identical. Identical values can stand only once. Inconclusive results and toxic doses are left out. No stated cut-off is given here; in the data, active means T/C of 150% or more; inactive means T/C below 125%.

System: L1210 leukemia ip in BDF1 mice, survival T/C
Assay: NCI In Vivo Anticancer Drug Screen. Data for tumor model L1210 Leukemia (intraperitoneal) in B6D2F1 (BDF1) mice
Conditions: endpoint: mean survival time, higher = longer survival
In short: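 Transplanted-tumor mice were given test agent; controls received vehicle only. Survival readings from the two groups were divided (treated over control).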

[1] = dose: 100.0 mg/kg/injection, schedule: Q01DX009 (ip), vehicle: saline
[2] = dose: 100.0 mg/kg/injection, schedule: Q04DX003 (ip), vehicle: Klucel (hydroxypropylcellulose) (HPC)
[3] = dose: 100.0 mg/kg/injection, schedule: Q04DX003 (ip), vehicle: saline
[4] = dose: 200.0 mg/kg/injection, schedule: Q01DX009 (ip), vehicle: saline
[5] = dose: 200.0 mg/kg/injection, schedule: Q04DX003 (ip), vehicle: Klucel (hydroxypropylcellulose) (HPC)
[6] = dose: 200.0 mg/kg/injection, schedule: Q04DX003 (ip), vehicle: saline
[7] = dose: 400.0 mg/kg/injection, schedule: Q04DX003 (ip), vehicle: Klucel (hydroxypropylcellulose) (HPC)
[8] = dose: 400.0 mg/kg/injection, schedule: Q04DX003 (ip), vehicle: saline
[9] = dose: 100.0 mg/kg/injection, schedule: Q01DX009 (ip), vehicle: saline with Tween-80
[10] = dose: 50.0 mg/kg/injection, schedule: Q01DX009 (ip), vehicle: Klucel (hydroxypropylcellulose) (HPC)
[11] = dose: 100.0 mg/kg/injection, schedule: Q04DX003 (ip), vehicle: saline with Tween-80
[12] = dose: 200.0 mg/kg/injection, schedule: Q04DX003 (ip), vehicle: saline with Tween-80
[13] = dose: 400.0 mg/kg/injection, schedule: Q04DX003 (ip), vehicle: saline with Tween-80
[14] = dose: 50.0 mg/kg/injection, schedule: Q04DX003 (ip), vehicle: saline with Tween-80
[15] = dose: 100.0 mg/kg/injection, schedule: Q01DX001 (ip), vehicle: carboxymethylcellulose (CMC)
[16] = dose: 200.0 mg/kg/injection, schedule: Q01DX001 (ip), vehicle: carboxymethylcellulose (CMC)
[17] = dose: 400.0 mg/kg/injection, schedule: Q01DX001 (ip), vehicle: carboxymethylcellulose (CMC)
[18] = dose: 100.0 mg/kg/injection, schedule: Q04DX002 (ip), vehicle: Klucel (hydroxypropylcellulose) (HPC)
[19] = dose: 200.0 mg/kg/injection, schedule: Q04DX002 (ip), vehicle: Klucel (hydroxypropylcellulose) (HPC)
[20] = dose: 400.0 mg/kg/injection, schedule: Q04DX002 (ip), vehicle: Klucel (hydroxypropylcellulose) (HPC)
[21] = dose: 25.0 mg/kg/injection, schedule: Q04DX002 (ip), vehicle: saline with Tween-80
[22] = dose: 50.0 mg/kg/injection, schedule: Q04DX002 (ip), vehicle: saline with Tween-80

Measured: T/C

CCC(CC)(CO)CO
inactive: dose: 25.0 mg/kg/injection, schedule: Q01DX009 (ip), vehicle: saline 96 % of control | dose: 25.0 mg/kg/injection, schedule: Q04DX003 (ip), vehicle: saline 96 % of control | dose: 50.0 mg/kg/injection, schedule: Q01DX009 (ip), vehicle: saline 96 % of control | dose: 50.0 mg/kg/injection, schedule: Q04DX003 (ip), vehicle: saline 102 % of control | [1] 92 % of control | [2] 103 % of control | [3] 91 % of control | [4] 96 % of control | [5] 94 % of control | [6] 91 % of control | dose: 400.0 mg/kg/injection, schedule: Q01DX009 (ip), vehicle: saline 96 % of control | [7] 97 % of control | [8] 107 % of control

COC(=O)c1ccc(OC(=O)Nc2ccccc2F)cc1
inactive: dose: 25.0 mg/kg/injection, schedule: Q01DX009 (ip), vehicle: saline with Tween-80 106 % of control | dose: 50.0 mg/kg/injection, schedule: Q01DX009 (ip), vehicle: saline with Tween-80 119 % of control | [9] 95 % of control and 108 % of control

CC/C=C/C1(C(C)C)C(=O)NC(=O)NC1=O
inactive: dose: 75.0 mg/kg/injection, schedule: Q01DX001 (ip), vehicle: saline 103 % of control | dose: 150.0 mg/kg/injection, schedule: Q01DX001 (ip), vehicle: saline 105 % of control

CCCC(OC(C)=O)C(Cl)(Cl)Cl (configuration not stated)
inactive: [10] 103 % of control | dose: 100.0 mg/kg/injection, schedule: Q01DX009 (ip), vehicle: Klucel (hydroxypropylcellulose) (HPC) 107 % of control | [2] 97 % of control | [5] 97 % of control

COc1ccc(-c2cc(-c3ccc(Cl)cc3)no2)cc1
inactive: [2] 106 % of control | [5] 92 % of control | [7] 95 % of control

COc1ccc(C(=O)Nc2ccc(Br)cc2)cc1
inactive: [11] 97 % of control | [12] 95 % of control | [13] 105 % of control

C1CCC2(CC1)SSC1(CCCCC1)S2
inactive: dose: 100.0 mg/kg/injection, schedule: Q04DX003 (ip), vehicle: other 95 % of control | dose: 200.0 mg/kg/injection, schedule: Q04DX003 (ip), vehicle: other 98 % of control | dose: 400.0 mg/kg/injection, schedule: Q04DX003 (ip), vehicle: other 98 % of control

CC(=O)Oc1cc(OC(C)=O)c(Oc2cc(OC(C)=O)c(Oc3cc(OC(C)=O)c(OC(C)=O)c(OC(C)=O)c3)c(OC(C)=O)c2)c(OC(C)=O)c1
inactive: [14] 97 % of control | [11] 95 % of control | [12] 95 % of control

COC1OCC(COC(=O)c2ccc([N+](=O)[O-])cc2)C1OC(=O)c1ccc([N+](=O)[O-])cc1 (configuration not stated)
inactive: [15] 88 % of control | [16] 88 % of control

CC[P+](CC=C(C)C)(c1ccccc1)c1ccccc1
inactive: dose: 0.78 mg/kg/injection, schedule: Q04DX003 (ip), vehicle: Klucel (hydroxypropylcellulose) (HPC) 96 % of control | dose: 1.56 mg/kg/injection, schedule: Q04DX003 (ip), vehicle: Klucel (hydroxypropylcellulose) (HPC) 94 % of control | dose: 3.12 mg/kg/injection, schedule: Q04DX003 (ip), vehicle: Klucel (hydroxypropylcellulose) (HPC) 113 % of control and 88 % of control

CC(C)(C)c1ccc(OC(=S)Nc2ccccc2)cc1
inactive: [11] 111 % of control | [12] 111 % of control | [13] 103 % of control

CCCCCCC(=O)/C=C\c1ccc([N+](C)(C)C)cc1
inactive: dose: 25.0 mg/kg/injection, schedule: Q01DX009 (sc), vehicle: steriod suspending solution 93 % of control | dose: 25.0 mg/kg/injection, schedule: Q04DX003 (sc), vehicle: steriod suspending solution 94 % of control | dose: 50.0 mg/kg/injection, schedule: Q01DX009 (sc), vehicle: steriod suspending solution 97 % of control | dose: 50.0 mg/kg/injection, schedule: Q04DX003 (sc), vehicle: steriod suspending solution 92 % of control | dose: 100.0 mg/kg/injection, schedule: Q01DX001 (sc), vehicle: steriod suspending solution 86 % of control | dose: 100.0 mg/kg/injection, schedule: Q04DX003 (sc), vehicle: steriod suspending solution 106 % of control

CCOC(=O)CCC(=O)NNc1ccccc1
inactive: dose: 50.0 mg/kg/injection, schedule: Q01DX001 (ip), vehicle: carboxymethylcellulose (CMC) 106 % of control | [15] 100 % of control | [16] 102 % of control | [17] 106 % of control

Oc1cccc2cccnc12
inactive: [15] 100 % of control | [17] 96 % of control

Nc1nc(N)c(CCCOc2ccc(C(=O)O)cc2)c(N)n1
inactive: dose: 12.5 mg/kg/injection, schedule: Q01DX009 (ip), vehicle: Klucel (hydroxypropylcellulose) (HPC) 95 % of control | dose: 25.0 mg/kg/injection, schedule: Q01DX009 (ip), vehicle: Klucel (hydroxypropylcellulose) (HPC) 100 % of control | [10] 93 % of control

CCCCCCCCCCCCCC(S(=O)(=O)CC)S(=O)(=O)CC
inactive: dose: 100.0 mg/kg/injection, schedule: Q01DX001 (ip), vehicle: Klucel (hydroxypropylcellulose) (HPC) 89 % of control | dose: 200.0 mg/kg/injection, schedule: Q01DX001 (ip), vehicle: Klucel (hydroxypropylcellulose) (HPC) 87 % of control | dose: 400.0 mg/kg/injection, schedule: Q01DX001 (ip), vehicle: Klucel (hydroxypropylcellulose) (HPC) 87 % of control

Oc1ccccc1-c1nc2cc(Cl)ccc2o1
inactive: [18] 97 % of control | [19] 97 % of control | [20] 101 % of control

CSc1ccccc1C1CCCCCC1OS(=O)(=O)c1ccc(C)cc1 (configuration not stated)
inactive: dose: 15.0 mg/kg/injection, schedule: Q01DX001 (ip), vehicle: carboxymethylcellulose (CMC) 96 % of control | dose: 30.0 mg/kg/injection, schedule: Q01DX001 (ip), vehicle: carboxymethylcellulose (CMC) 102 % of control

O=C(Nc1ccc(Cl)c(Cl)c1)c1ccco1
inactive: dose: 12.5 mg/kg/injection, schedule: Q01DX009 (ip), vehicle: saline with Tween-80 92 % of control and 93 % of control | dose: 25.0 mg/kg/injection, schedule: Q01DX001 (ip), vehicle: saline with Tween-80 97 % of control | [21] 116 % of control and 91 % of control | dose: 25.0 mg/kg/injection, schedule: Q04DX003 (ip), vehicle: saline with Tween-80 96 % of control | dose: 50.0 mg/kg/injection, schedule: Q01DX001 (ip), vehicle: saline with Tween-80 103 % of control | [22] 116 % of control and 91 % of control | [14] 93 % of control | dose: 100.0 mg/kg/injection, schedule: Q01DX001 (ip), vehicle: saline with Tween-80 109 % of control | [9] 93 % of control | [11] 95 % of control

COc1cccc(NC(=S)Nc2ccccc2)c1
inactive: [18] 95 % of control | [19] 88 % of control | [20] 111 % of control

CC(=O)OC1CCC(NC(=O)NCCF)CC1 (configuration not stated)
inactive: dose: 100.0 mg/kg/injection, schedule: Q01DX001 (ip), vehicle: other 98 % of control | dose: 200.0 mg/kg/injection, schedule: Q01DX001 (ip), vehicle: other 104 % of control | dose: 400.0 mg/kg/injection, schedule: Q01DX001 (ip), vehicle: other 115 % of control

O=C(O)c1cccc([N+](=O)[O-])c1
inactive: dose: 50.0 mg/kg/injection, schedule: Q04DX002 (ip), vehicle: Klucel (hydroxypropylcellulose) (HPC) 88 % of control | [18] 94 % of control

OC1CC23C(O)CCCC12C1C=CC3C1 (configuration not stated)
inactive: [21] 95 % of control | [22] 98 % of control | dose: 100.0 mg/kg/injection, schedule: Q04DX002 (ip), vehicle: saline with Tween-80 98 % of control | dose: 200.0 mg/kg/injection, schedule: Q04DX002 (ip), vehicle: saline with Tween-80 98 % of control

Cc1cc2oc(C)[n+](Cc3ccccc3)c2cc1C
inactive: [9] 105 % of control and 86 % of control | [11] 97 % of control | dose: 200.0 mg/kg/injection, schedule: Q01DX009 (ip), vehicle: saline with Tween-80 96 % of control and 110 % of control | [12] 95 % of control | [13] 95 % of control

BrCC(CBr)(CBr)CBr
inactive: [1] 103 % of control | [3] 93 % of control | [4] 97 % of control | [6] 100 % of control | [8] 101 % of control
